In US4031094A, “N-meta-trifluoromethylpiperazines” (Synthelabo, priority 1972, dated 1977):
Structures can show the parent of a compound that is named as a salt.

What was measured:
[1] = electric "battle test" (Tedeschi & al); type: in vivo; settings: oral; read-out: Electric Battle Test ED 50
Method: 3. the electric "battle test" (Tedeschi & al, J. Pharmacol., 1959, 125, pages […]); and
(§1) In every case, the compounds under test were administered orally. The results obtained are given in the table below which also gives the LD 50's (and their 95% confidence limits) of the compounds studied determined intravenously and orally.

mice = test: motor activity in mice in the hour following administration; type: in vivo; settings: 5 mg/kg, oral
Method: 2. the motor activity in mice in the hour following administration of the compound under test;
as §1

LD 50 intravenously = settings: in vivo; intravenous; 95% confidence limits in parentheses
Method: as §1

LD 50 orally = settings: in vivo; oral; 95% confidence limits in parentheses
Method: as §1

[2] = overall comparison of therapeutic index, activity and toxicity; type: in vivo; settings: compared with compounds II and III
Method: The compounds of formula IA and their salts have interesting pharmacological properties which make them of therapeutic interest.
as §1

rat = test: anorexigenic effects in the rat trained to satisfy its alimentary needs in a period of 5 hours each 24 hours; type: in vivo; settings: oral, read-out: Anorexia ED 50
Method: 1. a study of the anorexigenic effects in the rat trained to satisfy its alimentary needs in a period of 5 hours each 24 hours;
as §1

[3] = known properties of comparison compounds; cited from earlier work

Cl.N#CCCN1CCN(c2cccc(SC(F)(F)F)c2)CC1 [IA, N-(β-cyano-ethyl)-N'-(m-trifluoromethylthiophenyl)-piperazine hydrochloride]
solubility in water (solubility): soluble in water
ED50 [1]: 8 mg/kg
Motor Activity (mice): 0%
LD50 (LD 50 intravenously): 180 mg/kg
LD50 (LD 50 orally): 335 mg/kg
activity, overall [2]: higher activity
therapeutic index [2]: better therapeutic index than compounds II and III
toxicity [2]: lower toxicity
ED50 (rat): 11 mg/kg

COC(=O)CCN1CCN(c2cccc(SC(F)(F)F)c2)CC1 [Example 5, N-(β-methoxycarbonyl-ethyl)-N'-(m-trifluoromethylthiophenyl)-piperazine hydrochloride]
solubility in water (solubility): soluble in water

FC(F)(F)c1cccc(N2CCNCC2)c1 [Compound II, N-(m-trifluoromethylphenyl)-piperazine, reference compound]
ED50 [1]: 15 mg/kg
LD50 (LD 50 intravenously): 80 mg/kg
LD50 (LD 50 orally): 200 mg/kg
known pharmacological properties [3]: known to possess anorexigenic and anxiolytic properties
ED50 (rat): 25 mg/kg

FC(F)(F)Sc1cccc(N2CCNCC2)c1 [III, N-(m-trifluoromethylthiophenyl)-piperazine]
solubility in organic solvents (solubility; most usual organic solvents): soluble in water and in most usual organic solvents
solubility in water (solubility): soluble in water
ED50 [1]: 15 mg/kg
Motor Activity (mice): 0%
LD50 (LD 50 intravenously): 90 mg/kg
LD50 (LD 50 orally): 210 mg/kg
known pharmacological properties [3]: known to possess anorexigenic properties
ED50 (rat): 15 mg/kg
